Laboratory results as given in patent publication US11660300B2, “Method of maintaining oral health in animals” (Boehringer Ingelheim Animal Health USA Inc., priority 2006, dated 2023).

How the values were obtained:
Assay type in all cases: in vivo
dental plaque = assay: Presence of dental plaque (erythrosine staining) in beagle dogs given delmopinol dog snack; conditions: for Number of sites with presence of dental plaque on the buccal surfaces: upper jaw (UJ), dogs 1-4 and Sum
Experimental: (§1) A study was carried out to investigate the effect of dog snacks containing delmopinol on gingivitis and calculus formation in beagle dogs. Eight female dogs were used in the study. […] During a pre-experimental period of four weeks, the teeth in the upper jaws of all dogs were scaled and polished professionally with a rubber cup, pumice and water, on a weekly basis. The teeth of the upper jaws were also thoroughly brushed with a toothbrush and water, for 2 minutes daily. The teeth in the lower jaws were not cleaned. During this pre-experimental period the dogs were fed a soft gingivitis-inducing diet. Using these procedures, two different clinical conditions prevailed in the dogs at the end of the pre-experimental period: in the upper jaw the gingiva was clinically healthy while in the lower jaws gingivitis prevailed. […] In the upper jaws, the presence of plaque and gingivitis was measured at the buccal surfaces of canines, first, second, third, fourth premolars and first molars. In the lower jaws the measurements were undertaken at the buccal surfaces of canines and first molars, in total […] were examined clinically. 12 surfaces were clinically healthy prior to the experimental period and 4 surfaces were not maintained with oral hygiene measures. All experimental procedures, (except the tooth brushing during the pre-experimental period) were performed with the dogs anaesthetized by intravenous Pentothal (Abbot, Belgium). […] The various measurements were taken on days 0, 14 and 28. Clinical photos were taken of the upper jaws at the same occasions as the measurements. The presence of plaque was scored following staining of the teeth with erythrosine dye. Plaque was noted if stained dental plaque was in contact with the buccal gingival margin.

gingivitis = assay: Bleeding on probing (gingivitis) in beagle dogs given delmopinol dog snack; conditions: for Number of sites with gingival bleeding at the buccal surfaces: dogs 1-4 and Sum
Experimental: as §1, with “Bleeding on probing” for “The presence of plaque”, “scored according to Löe, H and Silness, J (1963) Periodontal disease in pregnancy. Prevalence and severity. Acta Odontologica Scandinavia 21, 533-551. Presence of gingivitis was registered if bleeding occurred within 20 seconds” for “scored”, “gentle probing” for “staining”, “of” for “of the teeth with erythrosine dye. Plaque was noted if stained dental plaque was in contact with”

calculus formation = assay: Calculus formation in beagle dogs given delmopinol dog snack; conditions: for Number of teeth with calculus on the buccal surfaces of the teeth of the upper jaw: dogs 1-4 and Sum
Experimental: A study was carried out to investigate the effect of dog snacks containing delmopinol on gingivitis and calculus formation in beagle dogs. Eight female dogs were used in the study. […] During a pre-experimental period of four weeks, the teeth in the upper jaws of all dogs were scaled and polished professionally with a rubber cup, pumice and water, on a weekly basis. The teeth of the upper jaws were also thoroughly brushed with a toothbrush and water, for 2 minutes daily. The teeth in the lower jaws were not cleaned. During this pre-experimental period the dogs were fed a soft gingivitis-inducing diet. Using these procedures, two different clinical conditions prevailed in the dogs at the end of the pre-experimental period: in the upper jaw the gingiva was clinically healthy while in the lower jaws gingivitis prevailed. […] In the upper jaws, the presence of plaque and gingivitis was measured at the buccal surfaces of canines, first, second, third, fourth premolars and first molars. In the lower jaws the measurements were undertaken at the buccal surfaces of canines and first molars, in total […] were examined clinically. 12 surfaces were clinically healthy prior to the experimental period and 4 surfaces were not maintained with oral hygiene measures. All experimental procedures, (except the tooth brushing during the pre-experimental period) were performed with the dogs anaesthetized by intravenous Pentothal (Abbot, Belgium). […] The various measurements were taken on days 0, 14 and 28. Clinical photos were taken of the upper jaws at the same occasions as the measurements. Presence or absence of calculus was noted on the buccal surfaces of the teeth in the upper jaws.

SMILES: CCCC(CCC)CCCC1COCCN1CCO (stereo not drawn) [Delmopinol, 3-(4-propyl-heptyl)-4-(2-hydroxyethyl)morpholine]
- Number of sites with presence of dental plaque on the buccal surfaces (dental plaque; Day 0 (baseline), n = 48 sites in sum): 0 sites
- Number of sites with presence of dental plaque on the buccal surfaces (dental plaque; Day 0 (baseline), n = 48 sites in sum, listed as delmopinol): plaque free
- reduction in the presence of dental plaque relative the control dogs (dental plaque; Day 14, upper jaw): around 20%
- Number of sites with presence of dental plaque on the buccal surfaces (dental plaque; Day 28 (14 days after last snack), n = 48): all teeth
- plaque accumulation (dental plaque; snacks with or without the tested component): did not alter
- Number of sites with gingival bleeding at the buccal surfaces (gingivitis; Day 0 (baseline), lower jaw (LJ), n = 16): 15 sites
- Number of sites with gingival bleeding at the buccal surfaces (gingivitis; Day 0 (baseline), upper jaw (UJ), n = 48): one
- Number of sites with gingival bleeding at the buccal surfaces (gingivitis; Day 14, lower jaw (LJ), n = 16): five
- Number of sites with gingival bleeding at the buccal surfaces (gingivitis; Day 14, upper jaw (UJ), n = 48): 13 sites
- Number of sites with gingival bleeding at the buccal surfaces (gingivitis; Day 28, lower jaw (LJ), n = 16): 12 sites
- Number of sites with gingival bleeding at the buccal surfaces (gingivitis; Day 28, upper jaw (UJ), n = 48): 21 sites
- reduction of established gingivitis (gingivitis; delmopinol added in the snack, snack alone 50%, lower jaw, day 0 to day 14): 69%
- increase of inflammation after stopping pre-experimental oral hygiene, versus control group (gingivitis; paired t-test p=0.05): significantly less
- Number of teeth with calculus on the buccal surfaces of the teeth of the upper jaw (calculus formation; Day 0 (baseline), n = 48 measured sites): 0 teeth
- Number of teeth with calculus on the buccal surfaces of the teeth of the upper jaw (calculus formation; Day 0 (baseline), n = 48 measured sites, listed as delmopinol): None
- Number of teeth with calculus on the buccal surfaces of the teeth of the upper jaw (calculus formation; Day 14, n = 48 measured sites): 6 teeth
- Number of teeth with calculus on the buccal surfaces of the teeth of the upper jaw (calculus formation; Day 28, n = 48 measured sites): 37 teeth
- calculus formation versus control (calculus formation; in the presence of dental plaque and with a calculus-promoting soft diet): strongly reduced
